Source: publication PMC6943619, “Synthesis and Pharmacological Evaluation of Hybrids Targeting Opioid and Neurokinin Receptors” (Molecules, 2019)
Where a SMILES comes first, the peptide text is derived from it. Bridges are numbered along the chain shown (N, C = ends). [ ]: non-standard residue; d: D form.

Key:
[1] = target: T1, human opioid receptor DOR (Homo sapiens, UniProt P41143); experiment: Radioligand binding assay, displacement of [3H]deltorphin-2; settings: displacement of [3H]deltorphin-2 from membranes of CHO cells transfected with human DOR, 50 mM Tris/HCl pH 7.4, 0.5% BSA, peptidase inhibitors, 2 h at 25 °C, mean ± SEM, n ≥ 3
T1 construct: purchased PerkinElmer (Krakow, Poland); host or cells: CHO cell membranes
T1 sequence (P41143 whole entry): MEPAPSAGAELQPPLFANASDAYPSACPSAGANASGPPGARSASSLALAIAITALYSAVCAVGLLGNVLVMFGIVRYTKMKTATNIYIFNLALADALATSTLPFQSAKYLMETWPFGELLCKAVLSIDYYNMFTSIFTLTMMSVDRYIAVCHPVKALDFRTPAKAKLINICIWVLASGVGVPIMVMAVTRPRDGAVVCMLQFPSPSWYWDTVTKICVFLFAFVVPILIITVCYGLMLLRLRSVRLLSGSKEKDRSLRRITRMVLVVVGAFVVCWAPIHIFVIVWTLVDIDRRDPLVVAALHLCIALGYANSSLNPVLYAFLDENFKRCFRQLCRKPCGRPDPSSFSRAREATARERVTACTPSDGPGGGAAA
Protocol: A radioligand binding assay was performed to determine the opioid receptor (OR) binding affinities of the novel analogs using commercially available membranes of Chinese hamster ovary cells (CHO) transfected with human recombinant ORs. […] Tyr-[D-Lys-Phe-Phe-Asp]NH2 (1) was used as a reference opioid compound.
(§1) To determine the affinity of peptide analogs to respective receptors, competition binding experiments were performed, as described in detail elsewhere.
(§2) Commercial membranes of CHO cells stably expressing either human ORs or NK1 receptor were used. […] Membranes were incubated in a 0.5 mL volume of 50 mM Tris/HCl (pH = 7.4), 0.5% bovine serum albumin (BSA), with a number of peptidase inhibitors (bacitracin, bestatin, captopril) and various concentrations of radioligands for 2 h at 25 °C.
(§3) The pharmacological terminology adopted in this paper is consistent with International Union of Basic and Clinical Pharmacology (IUPHAR) recommendations. Concentration–response curves were analyzed by nonlinear regression using Graph Pad Prism 6.0 (La Jolla, CA, USA). […] Concentration–response curves were fitted with the four-parameter logistic nonlinear regression model (1) Effect=baseline+Emax−baseline/1+10^logEC50−X·n where X is the agonist concentration and n is the Hill coefficient. Ligand efficacy was expressed as intrinsic activity (α) calculated as a ratio of the peptide Emax to the Emax of the standard agonist (Supplementary Materials, Figure S7). […] All statistical analyses were performed using Graph Pad Prism 6.0 (La Jolla, CA, USA). Differences between groups were analyzed with one-way ANOVA and a post hoc multiple comparison by the Student–Newman–Keuls test. A probability level of 0.05 or smaller was used to indicate statistical significance.

[2] = target: human NK1 (Homo sapiens, UniProt P25103); experiment: Radioligand binding assay, displacement of [3H][Sar9, Met(O2)11]SP; set-up: purchased PerkinElmer (Krakow, Poland); host or cells: CHO cell membranes; settings: displacement of [3H][Sar9, Met(O2)11]SP from membranes of CHO cells transfected with human NK1 receptor; 50 mM Tris/HCl pH 7.4, 0.5% BSA, peptidase inhibitors, 2 h at 25 °C; mean ± SEM, n ≥ 3
human NK1, sequence (P25103 whole entry): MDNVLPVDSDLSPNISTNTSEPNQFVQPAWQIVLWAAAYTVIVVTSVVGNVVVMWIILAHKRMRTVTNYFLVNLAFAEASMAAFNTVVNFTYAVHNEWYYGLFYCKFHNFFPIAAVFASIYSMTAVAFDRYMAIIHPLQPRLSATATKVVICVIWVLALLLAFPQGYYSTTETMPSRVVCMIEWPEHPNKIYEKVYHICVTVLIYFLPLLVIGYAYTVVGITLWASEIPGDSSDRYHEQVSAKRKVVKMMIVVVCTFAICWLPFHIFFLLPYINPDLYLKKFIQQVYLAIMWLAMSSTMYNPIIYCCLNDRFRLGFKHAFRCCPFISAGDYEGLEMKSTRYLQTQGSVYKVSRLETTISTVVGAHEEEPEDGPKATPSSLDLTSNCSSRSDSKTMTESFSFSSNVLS
Protocol: The binding assay was also used to examine the affinity of the synthesized hybrids for NK1 in commercial membranes of CHO cells stably expressing human NK1.
as §1, §2, §3

[3] = target: T2, human KOR (Homo sapiens, UniProt P41145); experiment: Calcium mobilization functional assay, agonist mode; assay type: cell-based; settings: CHO cells co-expressing human KOR and Gαqi5; Fluo-4 AM calcium signal; n = 5; read-out: KOR pEC50 (CL95%) (converted)
T2 construct: expressed in transfected cells; host or cells: CHO cells (University of Ferrara), co-expressing Gαqi5
T2 sequence (P41145 whole entry): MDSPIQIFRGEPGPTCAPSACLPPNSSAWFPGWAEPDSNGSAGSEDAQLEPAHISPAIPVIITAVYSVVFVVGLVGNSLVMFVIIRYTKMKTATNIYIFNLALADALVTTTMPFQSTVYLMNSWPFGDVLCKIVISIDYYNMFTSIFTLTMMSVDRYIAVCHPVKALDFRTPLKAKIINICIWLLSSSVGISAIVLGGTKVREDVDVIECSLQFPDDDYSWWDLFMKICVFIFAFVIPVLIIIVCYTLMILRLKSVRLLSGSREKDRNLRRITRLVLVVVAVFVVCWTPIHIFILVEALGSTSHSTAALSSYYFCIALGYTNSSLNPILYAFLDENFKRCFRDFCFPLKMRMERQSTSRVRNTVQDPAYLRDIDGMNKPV

[4] = test system: mice; experiment: Stool collection (stool mass, stool water content); assay type: in vivo; settings: repeated i.p. injections 5 mg/kg, stool collected 90 min after injection on Days 1–6, compared to control group, n = 10
Protocol: In order to determine the influence of prolonged administration of the tested compounds on gastrointestinal passage, stool was collected for six days from mice used in the tolerance development test.
Figure 5 Effect of repeated i.p. injections of saline and the tested peptides on stool mass (A), stool water content (B), food intake (C), and water consumption (D). The data represent mean ± SEM, n = 10. Statistical significance was assessed using one-way ANOVA and a post hoc multiple comparison by the Student–Newman–Keuls test. *** p < 0.001, as compared to control.
After the i.p. injections of saline or peptides (Days 1–6), mice were placed in a separate clean cages and stool was collected for a period of 90 min. Fecal pellets were collected immediately after expulsion to avoid evaporation and placed in closed 1.5 mL tubes. Tubes were weighed to obtain the wet weight of the stool. Then, the tubes were opened and stool was dried overnight at 65 °C and reweighed to obtain the dry weight. The stool water content was calculated from the difference between the wet and dry stool weights.

[5] = target: T3, DOR (Homo sapiens, UniProt P41143); experiment: Calcium mobilization functional assay, agonist mode; assay type: cell-based; settings: CHO cells co-expressing DOR and GαqG66Di5; Fluo-4 AM calcium signal; n = 5
T3 construct: expressed in transfected cells; host or cells: CHO cells (University of Ferrara), co-expressing GαqG66Di5
T3 sequence (P41143 whole entry): as the sequence (P41143 whole entry) above

[6] = cited from earlier work
Text: Here, we report on the synthesis and the initial pharmacological testing of several hybrid peptides with opioid agonist/NK1 antagonist and opioid agonist/NK1 agonist profiles. We performed structure affinity/activity relationship studies, seeking hybrids that could simultaneously and potently bind opioid and NK1 receptors. Both types of hybrids were designed with the same opioid fragment to make the comparison of their activity easier. It was already documented in the literature that simultaneous activation of both MOR and KOR intensifies the analgesic effect of pure MOR agonists. There ...

[7] = target: T4, human opioid receptor KOR (Homo sapiens, UniProt P41145); experiment: Radioligand binding assay, displacement of [3H]U-69593; settings: displacement of [3H]U-69593 from membranes of CHO cells transfected with human KOR, 50 mM Tris/HCl pH 7.4, 0.5% BSA, peptidase inhibitors, 2 h at 25 °C, mean ± SEM, n ≥ 3
T4 construct: purchased PerkinElmer (Krakow, Poland); host or cells: CHO cell membranes
T4 sequence (P41145 whole entry): as the sequence (P41145 whole entry) above
Protocol: (§4) A radioligand binding assay was performed to determine the opioid receptor (OR) binding affinities of the novel analogs using commercially available membranes of Chinese hamster ovary cells (CHO) transfected with human recombinant ORs. [^3H]DAMGO, [^3H]deltorphin-2, and [^3H]U-69593 were used as the radioligands for MOR, DOR, and KOR, respectively. Tyr-[D-Lys-Phe-Phe-Asp]NH2 (1) was used as a reference opioid compound. […] None of them acquired significant DOR affinity.
as §1
(§5) Commercial membranes of CHO cells stably expressing either human ORs or NK1 receptor were used. [^3H]DAMGO, [^3H]deltorphin-2, and [^3H]U-69593 were employed as the competing radioligands for MOR, DOR, and KOR, respectively, while [^3H][Sar^9, Met(O2)^11]SP was utilized for the NK1 receptor. Membranes were incubated in a 0.5 mL volume of 50 mM Tris/HCl (pH = 7.4), 0.5% bovine serum albumin (BSA), with a number of peptidase inhibitors (bacitracin, bestatin, captopril) and various concentrations of radioligands for 2 h at 25 °C. Nonspecific binding was assessed in the presence of […] naloxone for ORs or SP for NK1 receptor.
(§6) The pharmacological terminology adopted in this paper is consistent with International Union of Basic and Clinical Pharmacology (IUPHAR) recommendations. Concentration–response curves were analyzed by nonlinear regression using Graph Pad Prism 6.0 (La Jolla, CA, USA). […]. […] Concentration–response curves were fitted with the four-parameter logistic nonlinear regression model (1) Effect=baseline+Emax−baseline/1+10^logEC50−X·n where X is the agonist concentration and n is the Hill coefficient. Ligand efficacy was expressed as intrinsic activity (α) calculated as a ratio of the peptide Emax to the Emax of the standard agonist (Supplementary Materials, Figure S7). […]. All statistical analyses were performed using Graph Pad Prism 6.0 (La Jolla, CA, USA). Differences between groups were analyzed with one-way ANOVA and a post hoc multiple comparison by the Student–Newman–Keuls test. A probability level of 0.05 or smaller was used to indicate statistical significance.

[8] = target: T5, human opioid receptor MOR (Homo sapiens, UniProt P35372); experiment: Radioligand binding assay, displacement of [3H]DAMGO; settings: displacement of [3H]DAMGO from membranes of CHO cells transfected with human MOR, 50 mM Tris/HCl pH 7.4, 0.5% BSA, peptidase inhibitors, 2 h at 25 °C, mean ± SEM, n ≥ 3
T5 construct: purchased PerkinElmer (Krakow, Poland); host or cells: CHO cell membranes
T5 sequence (P35372 whole entry): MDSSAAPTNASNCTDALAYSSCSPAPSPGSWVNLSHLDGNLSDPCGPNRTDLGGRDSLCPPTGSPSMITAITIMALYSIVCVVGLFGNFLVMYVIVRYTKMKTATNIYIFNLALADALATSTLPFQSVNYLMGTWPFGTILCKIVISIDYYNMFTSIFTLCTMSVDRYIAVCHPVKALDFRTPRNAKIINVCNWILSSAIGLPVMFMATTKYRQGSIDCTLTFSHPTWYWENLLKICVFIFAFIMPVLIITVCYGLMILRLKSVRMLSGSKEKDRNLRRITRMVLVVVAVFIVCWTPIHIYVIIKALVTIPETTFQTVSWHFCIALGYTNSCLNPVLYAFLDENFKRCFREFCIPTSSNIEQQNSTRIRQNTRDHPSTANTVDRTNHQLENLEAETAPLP
Protocol: as §4, §1, §5, §6

[9] = target: T6, human MOR (Homo sapiens, UniProt P35372); experiment: Calcium mobilization functional assay, agonist mode; assay type: cell-based; settings: CHO cells co-expressing human MOR and Gαqi5; Fluo-4 AM calcium signal; n = 5; read-out: MOR pEC50 (CL95%) (converted)
T6 construct: expressed in transfected cells; host or cells: CHO cells (University of Ferrara), co-expressing Gαqi5
T6 sequence (P35372 whole entry): as above

## NC(=O)[C@@H]1CC(=O)NCCCC[C@@H](NC(=O)[C@@H](N)Cc2ccc(O)cc2)C(=O)N[C@@H](Cc2ccccc2)C(=O)N[C@@H](Cc2ccccc2)C(=O)N1 [compound 1, Tyr-c[D-Lys-Phe-Phe-Asp]NH2] (H-Y[dK]FFD-NH2; lactam 2-5)
[1]
  Ki: 171 ± 3.5 nM
[2]
  Ki NK1: Inactive
[3]
  EC50: 2.19 nM
[4]
  stool mass (constipation): serious constipation
[5]
  DOR pEC50 (CL95%): Crc incomplete
[6]
  enzymatic stability: very good enzymatic stability
[7]
  Ki: 1.12 ± 0.2 nM
[8]
  Ki: 0.35 ± 0.02 nM
[9]
  EC50: 1.05 nM
